How the values were obtained:
LCC6 cells = assay: Drug resistance level: IC50 of anticancer drugs in LCC6; assay type: cell-based; settings: Homo sapiens, LCC-6, 72 h; 3 days incubation
Method: (§1) In the Western blot membrane, the total P-gp and β-actin expression in each lane was quantified with ImageJ software. The relative P-gp expression was an intensity ratio of P-gp band relative to the β-actin band. The relative P-gp expression of the resistant cell line relative to its respective wild type was presented as a bar chart. The plasma membrane P-gp levels of LCC6MDR and K562/P-gp relative to their wild types were determined through flow cytometry using antihuman P-gp-PE antibodies. (B) LCC6MDR and LCC6. (C) K562/P-gp and K562. (D) the drug resistance levels of three P-gp-overexpressing cell lines and their wild types were studied. The 3 pairs of cell lines were incubated with anticancer drugs paclitaxel (PTX), doxorubicin (DOX), and vincristine (VCR) for 3 days, and the % of cell survival was then determined. Their IC50 (nM) values were calculated using Prism 5.0. RF (relative fold) was a ratio of IC50 of anticancer drugs in a P-gp-overexpressing cell line relative to its respective wild type. N = 3 independent experiments. […] All cell lines were counterstained with DAPI. (E) LCC6 and LCC6MDR, (F) P388 and P338ADR, and (G) K562 and K562/P-gp. Bar = 8 µm. / = not determined.

LCC6MDR cells = assay: Drug resistance level: IC50 of anticancer drugs in LCC6MDR; assay type: cell-based, human
Method: as §1

P388 cells = assay: Drug resistance level: IC50 of anticancer drugs in P388; assay type: cell-based; settings: Mus musculus, P388, 72 h; 3 days incubation
Method: as §1

P388ADR cells = assay: Drug resistance level: IC50 of anticancer drugs in P388ADR; assay type: cell-based, mouse
Method: as §1

K562 cells = assay: Drug resistance level: IC50 of anticancer drugs in K562; assay type: cell-based; settings: Homo sapiens, K562, 72 h; 3 days incubation
Method: as §1

K562/P-gp cells = assay: Drug resistance level: IC50 of anticancer drugs in K562/P-gp; assay type: cell-based, human
Method: as §1

P388ADR leukemia = assay: In vivo efficacy in reversing DOX resistance in murine leukemia P388ADR model; design: species or system B6D2F1 mice; settings: DOX 3 mg/kg i.p. alone
Method: (§2) Irradiated BDF1 mice were i.p. inoculated with P388ADR cells, which caused mouse leukemia. Irradiated NOD/SCID mice were i.v. inoculated with K562/P-gp cells, which caused human leukemia. The mice were randomized and treated with (1) control treatment (no treatment), (2) DOX alone, and (3) EC31 + DOX. Treatments were given as indicated by the arrows. The number of mice deaths in each treatment group was recorded every day. (A) The percent survival of mice infected with P388ADR. (B) The percent survival of mice infected with K562/P-gp. The mice median survival days and the increased lifespan (ILS) were analyzed with Log-rank (Mantel–COX) test in Prism 5.0. Student’s paired t test was conducted as indicated. ** represents p < 0.01, and *** represents p < 0.001. N.S. = not significant.
About 1 × 10^6 cells of P388ADR were i.p. inoculated in male B6D2F1 mice aged 5–7 weeks old. There were 3 groups: (1) control group with no treatment, (2) DOX (3 mg/kg i.p.) alone, and (3) cotreatment with EC31 (60 mg/kg i.p.) being injected 1 h prior to DOX (3 mg/kg i.p.) administration. In group 2, DOX was i.p. injected on days 2, 6, 10, 14, and 18 only. In group 3, EC31 was i.p. injected on days 1, 2, 5, 6, 9, 10, 13, 14, 17, and 18, and DOX was i.p. injected on days 2, 6, 10, 14, and 18. Before each treatment, 1.5 mg/mL of DOX was freshly prepared using PBS. Mice survival and body weight were monitored during the study period.

K562/P-gp leukemia = assay: In vivo efficacy in reversing DOX resistance in human leukemia K562/P-gp model; design: species or system NOD/SCID mice
Method: as §2
The mice were randomly distributed into 3 groups: (1) control group (no treatment), (2) DOX (0.9 mg/kg i.v.) alone, and (3) cotreatment with EC31 (30 mg/kg i.p.) being injected 1 h prior to DOX (0.9 mg/kg i.v.) administration. EC31 and DOX were injected on days 7, 11, 19, 23, and 27. Before each treatment, 0.2 mg/mL of DOX was freshly prepared using PBS. Mice survival and body weight were monitored during the study period.

Question: Which IC50 (LCC6 cells) does the source give for `COc1cccc2c1C(=O)c1c(O)c3c(c(O)c1C2=O)C[C@@](O)(C(=O)CO)C[C@@H]3O[C@H]1C[C@H](N)[C@H](O)[C@H](C)O1` [DOX, doxorubicin] here?
Answer: 800 ± 100 nM

Question: And the IC50 (LCC6MDR cells; Homo sapiens, LCC6MDR, 72 h, 3 days incubation)?
Answer: 10300 nM

Question: What about the “RF (relative fold)” value (LCC6MDR cells; IC50 in LCC6MDR relative to LCC6) of the same compound?
Answer: 12.9

Question: And the IC50 (P388 cells)?
Answer: 50 ± 1.8 nM

Question: What about the “RF (relative fold)” value (P388ADR cells; IC50 in P388ADR relative to P388) of the same compound?
Answer: 35.8

Question: And the IC50 (P388ADR cells; Mus musculus, P388/ADR, 72 h, 3 days incubation)?
Answer: 1790 ± 139 nM

Question: What about the IC50 (K562 cells) of the same compound?
Answer: 312 ± 41.6 nM

Question: And the IC50 (K562/P-gp cells; Homo sapiens, K562, 72 h, 3 days incubation)?
Answer: 1930 ± 126 nM

Question: And the “RF (relative fold)” value (K562/P-gp cells; IC50 in K562/P-gp relative to K562)?
Answer: 6.2

Question: And the median survival (P388ADR leukemia)?
Answer: 16.5 days

Question: What about the median survival time (K562/P-gp leukemia; DOX 0.9 mg/kg i.v. alone) of the same compound?
Answer: 32.0 days

Question: And the “ILS% (increase in lifespan)” value (K562/P-gp leukemia; DOX alone compared to untreated)?
Answer: 10.3%
